Type in all cases: cell-based
For test [1], the system named is T-Rex 293 cells having increased expression of estrogen receptor alpha protein. Briefly: Cellular growth inhibition assay, T-Rex 293 cells, (+) doxycycline. The settings on record: T-REx-293, 72 h, Table 7-A; T-Rex 293 cells with doxycycline (increased ERα expression); 72 hours; CellTiter-Glo; read-out: (+) Dox GI50. Put shortly:
(§1)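 Viability read-out was CellTiter-Glo 2.0 luminescence after 72 h compound exposure, normalized to zero luminescence and fitted by four-parameter regression to give GI50. Cells were an ERα-inducible T-Rex 293 clone cultured with or without 3 ng/mL doxycycline in charcoal-stripped, phenol red-free medium.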

Test [2] has as its system T-Rex 293 cells lacking increased expression of estrogen receptor alpha protein. Put plainly: Cellular growth inhibition assay, T-Rex 293 cells, (−) doxycycline. The settings on record: T-REx-293, 72 h, Table 7-A; T-Rex 293 cells without doxycycline (lacking increased ERα expression); 72 hours; CellTiter-Glo; read-out: (−) Dox GI50. Put shortly:
as §1

Test [3] has as its system MCF7 cells (ATCC #HTB-22). Briefly: Cellular growth inhibition assay, MCF7 cells purchased from ATCC. The settings on record: Homo sapiens, MCF7, 144 h, Table 8-A; MCF7 cells purchased from ATCC; six days; CellTiter-Glo; read-out: GI50. Summed up: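 MCF7 cells in RPMI 1640 with 10% FBS and 0.2 U/ml insulin, seeded at 1,500 cells/well (ATCC) or 225 cells/well (ECACC). Compounds added 24 h later, then 6 days at 37° C. Viability by CellTiter-Glo 2.0 luminescence. GI50 from four-parameter fit.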
(Cellular ATP, detected with luciferase, serves as a proxy for viable cell number.)

Each structure is given as a SMILES string.

On to `Cc1sc2c(c1C)C(c1ccc(N3CC4(CCC(CN5CCC(c6ccc([C@H]7c8ccc(O)cc8CC[C@H]7c7ccc(F)cc7)cc6)CC5)CC4)C3)cc1)=N[C@@H](C)c1nnc(C)n1-2` [III-252], for which the GI50 was in the range of 50 to 500 nM in test [1], 500 to 2500 nM in test [2] and 500 to 2500 nM in test [3].
On to `Cc1sc2c(c1C)C(c1ccc(N3CC4(CCC(CN5CCC(c6ccc([C@@H]7c8ccc(O)cc8CC[C@@H]7c7ccc(F)cc7)cc6)CC5)CC4)C3)cc1)=N[C@@H](C)c1nnc(C)n1-2` [III-253], for which the results for the GI50 in test [1], in test [2] and in test [3] were below 50 nM, 500 to 2500 nM and below 50 nM, respectively.
For `COc1cc([C@H]2c3ccc(O)cc3CC[C@H]2c2ccc(F)cc2)ccc1N1CCN(CC2(O)CCN(c3ccc(C4=N[C@@H](C)c5nnc(C)n5-c5sc(C)c(C)c54)cc3)CC2)CC1` [III-254], the GI50 in test [1] was below 50 nM; in test [2] it was 500 to 2500 nM; in test [3], 50 to 500 nM.
For `COc1cc([C@@H]2c3ccc(O)cc3CC[C@@H]2c2ccc(F)cc2)ccc1N1CCN(CC2(O)CCN(c3ccc(C4=N[C@@H](C)c5nnc(C)n5-c5sc(C)c(C)c54)cc3)CC2)CC1` [III-255] the same measures were below 50 nM, 500 to 2500 nM and 50 to 500 nM.
`Cc1sc2c(c1C)C(c1ccc(N3CCC(O)(CN4CCN(c5cc(F)c([C@@H]6c7ccc(O)cc7CC[C@@H]6c6ccc(F)cc6)cc5F)CC4)CC3)cc1)=N[C@@H](C)c1nnc(C)n1-2` [III-256]: the GI50 was below 50 nM in test [1], 500 to 2500 nM in test [2] and below 50 nM in test [3].
On to `Cc1sc2c(c1C)C(c1ccc(N3CCC(O)(CN4CCN(c5cc(F)c([C@H]6c7ccc(O)cc7CC[C@H]6c6ccc(F)cc6)cc5F)CC4)CC3)cc1)=N[C@@H](C)c1nnc(C)n1-2` [III-257], for which the GI50 in test [1] is 50 to 500 nM; in test [2], 500 to 2500 nM; in test [3] it was 50 to 500 nM.
Turning to `Cc1sc2c(c1C)C(c1ccc(N3CCC(O)(CN4CCN(c5ccc([C@H]6c7ccc(O)cc7CC[C@H]6c6ccc(F)cc6F)cc5)CC4)CC3)cc1)=N[C@@H](Cc1ncco1)c1nnc(C)n1-2` [III-258], the GI50 in test [1], in test [2] and in test [3] was 50 to 500 nM each time.
Consider `Cc1sc2c(c1C)C(c1ccc(N3CCC(O)(CN4CCN(c5ccc([C@@H]6c7ccc(O)cc7CC[C@@H]6c6ccc(F)cc6F)cc5)CC4)CC3)cc1)=N[C@@H](Cc1ncco1)c1nnc(C)n1-2` [III-259], for which the results for the GI50 in test [1], in test [2] and in test [3] were below 50 nM, 500 to 2500 nM and below 50 nM, respectively.
Turning to `Cc1sc2c(c1C)C(c1ccc(C3CN(C[C@H]4C[C@@H](CN5CC(c6ccc([C@@H]7c8ccc(O)cc8CC[C@@H]7c7ccccc7)cc6)C5)C4)C3)cc1)=N[C@@H](C)c1nnc(C)n1-2` [III-260], the GI50 in test [1] is below 50 nM; in test [2] it was 500 to 2500 nM; in test [3], 50 to 500 nM.
For the compound `Cc1sc2c(c1C)C(c1ccc(C3CN(C[C@H]4C[C@H](CN5CC(c6ccc([C@@H]7c8ccc(O)cc8CC[C@@H]7c7ccccc7)cc6)C5)C4)C3)cc1)=N[C@@H](C)c1nnc(C)n1-2` [III-261], the values for the GI50 in test [1], in test [2] and in test [3] were below 50 nM, 500 to 2500 nM and 50 to 500 nM, respectively.
Regarding `Cc1sc2c(c1C)C(c1ccc(N3CC4(CC(CN5CCN(c6ccc([C@H]7c8ccc(O)cc8CC[C@H]7c7ccc(F)cc7)cc6)CC5)C4)C3)cc1)=N[C@@H](C)c1nnc(C)n1-2` [III-262], the GI50 in test [1] was in the range of 50 to 500 nM; in test [2] it was 500 to 2500 nM; in test [3], 50 to 500 nM.
With `Cc1sc2c(c1C)C(c1ccc(N3CC4(CC(CN5CCN(c6ccc([C@@H]7c8ccc(O)cc8CC[C@@H]7c7ccc(F)cc7)cc6)CC5)C4)C3)cc1)=N[C@@H](C)c1nnc(C)n1-2` [III-263], the GI50 in test [1] is below 50 nM; in test [2] it was 500 to 2500 nM; in test [3], below 50 nM.
`Cc1sc2c(c1C)C(c1ccc(N3CCC(O)(CC4CCN(c5ccc([C@@H]6c7ccc(B(O)O)cc7CC[C@@H]6c6ccccc6)cc5)CC4)CC3)cc1)=N[C@@H](C)c1nnc(C)n1-2` [III-264]: the GI50 in test [1] is below 50 nM; in test [2] it was 500 to 2500 nM; in test [3] it was below 50 nM.
For `Cc1sc2c(c1C)C(c1ccc(N3CC4(CCC(CN5CCN(c6ccc([C@@H]7c8ccc(O)cc8CC[C@@H]7c7ccccc7)cc6Cl)CC5)CC4)C3)cc1)=N[C@@H](C)c1nnc(C)n1-2` [III-265], the GI50 is 50 to 500 nM in test [1], above 2500 nM in test [2] and 50 to 500 nM in test [3].
As to `Cc1sc2c(c1C)C(c1ccc(N3CC4(CCC(O)(CN5CCN(c6cc(F)c([C@@H]7c8ccc(O)cc8CC[C@@H]7c7ccc(F)cc7)c(F)c6)CC5)CC4)C3)cc1)=N[C@@H](C)c1nnc(C)n1-2` [III-266], the figures for the GI50 in test [1], in test [2] and in test [3] were below 50 nM, 500 to 2500 nM and below 50 nM, respectively.
With `Cc1sc2c(c1C)C(c1ccc(N3CC4(CCC(O)(CN5CCC(c6cc(F)c([C@H]7c8ccc(O)cc8CC[C@H]7c7ccc(F)cc7)c(F)c6)CC5)CC4)C3)cc1)=N[C@@H](C)c1nnc(C)n1-2` [III-267], the GI50 in test [1] was 50 to 500 nM; in test [2], above 2500 nM; in test [3] it was 50 to 500 nM.
`Cc1sc2c(c1C)C(c1ccc(N3CC4(C3)CC(O)(CN3CCN(c5ccc([C@@H]6c7ccc(O)cc7CC[C@@H]6c6ccccc6)cc5)CC3)C4)cc1)=N[C@@H](C)c1nnc(C)n1-2` [III-268]: the GI50 in test [1] is below 50 nM; in test [2], 500 to 2500 nM; in test [3], below 50 nM.
Turning to `Cc1sc2c(c1C)C(c1ccc(N3CCC(O)(CN4CCN(c5ccc([C@H]6c7ccc(O)cc7CC[C@H]6c6ccc(F)c(F)c6)c(F)c5)CC4)CC3)cc1)=N[C@@H](C)c1nnc(C)n1-2` [III-269], the GI50 in test [1], in test [2] and in test [3] was 50 to 500 nM throughout.
With `Cc1sc2c(c1C)C(c1ccc(N3CCC(O)(CN4CCN(c5ccc([C@@H]6c7ccc(O)cc7CC[C@@H]6c6ccc(F)c(F)c6)c(F)c5)CC4)CC3)cc1)=N[C@@H](C)c1nnc(C)n1-2` [III-270], the GI50 is below 50 nM in test [1], 500 to 2500 nM in test [2] and 50 to 500 nM in test [3].
Regarding `Cc1sc2c(c1C)C(c1ccc(N3CCC(O)(CN4CCN(c5ccc([C@H]6c7ccc(O)cc7CC[C@H]6c6cccc(F)c6F)c(F)c5)CC4)CC3)cc1)=N[C@@H](C)c1nnc(C)n1-2` [III-271], the GI50 in test [1], in test [2] and in test [3] was 50 to 500 nM each time.
Consider `Cc1sc2c(c1C)C(c1ccc(N3CCC(O)(CN4CCN(c5ccc([C@@H]6c7ccc(O)cc7CC[C@@H]6c6cccc(F)c6F)c(F)c5)CC4)CC3)cc1)=N[C@@H](C)c1nnc(C)n1-2` [III-272], for which the GI50 in test [1] was below 50 nM; in test [2], 500 to 2500 nM; in test [3], below 50 nM.
On to `Cc1sc2c(c1C)C(c1ccc(N3CCC(O)(CN4CCN(c5ccc([C@H]6c7ccc(O)cc7CC[C@H]6c6cc(F)ccc6F)c(F)c5)CC4)CC3)cc1)=N[C@@H](C)c1nnc(C)n1-2` [III-273], for which the GI50 in test [1], in test [2] and in test [3] was 50 to 500 nM each time.
For the compound `Cc1sc2c(c1C)C(c1ccc(N3CCC(O)(CN4CCN(c5ccc([C@@H]6c7ccc(O)cc7CC[C@@H]6c6cc(F)ccc6F)c(F)c5)CC4)CC3)cc1)=N[C@@H](C)c1nnc(C)n1-2` [III-274], the GI50 is below 50 nM in test [1], 500 to 2500 nM in test [2] and below 50 nM in test [3].
Take `Cc1sc2c(c1C)C(c1ccc(N3CC4(CC(CN5CCN(c6cc(F)c([C@@H]7c8ccc(O)cc8CC[C@@H]7c7ccccc7)c(F)c6)CC5)C4)C3)cc1)=N[C@@H](C)c1nnc(C)n1-2` [III-277]: the GI50 in test [1] is below 50 nM; in test [2] it was 500 to 2500 nM; in test [3], below 50 nM.
For `Cc1sc2c(c1C)C(c1ccc(N3CC4(CC(CN5CCN(c6cc(F)c([C@H]7c8ccc(O)cc8CC[C@H]7c7ccccc7)c(F)c6)CC5)C4)C3)cc1)=N[C@@H](C)c1nnc(C)n1-2` [III-278], the GI50 in test [1] is 50 to 500 nM; in test [2], 500 to 2500 nM; in test [3], 50 to 500 nM.
On to `Cc1sc2c(c1C)C(c1ccc(N3CC4(C3)CC(O)(CN3CCN(c5cc(F)c([C@@H]6c7ccc(O)cc7CC[C@@H]6c6ccc(F)cc6)c(F)c5)CC3)C4)cc1)=N[C@@H](C)c1nnc(C)n1-2` [III-279], for which the GI50 is below 50 nM in test [1], 500 to 2500 nM in test [2] and below 50 nM in test [3].
For `Cc1sc2c(c1C)C(c1ccc(N3CC4(C3)CC(O)(CN3CCN(c5cc(F)c([C@H]6c7ccc(O)cc7CC[C@H]6c6ccc(F)cc6)c(F)c5)CC3)C4)cc1)=N[C@@H](C)c1nnc(C)n1-2` [III-280], the GI50 in test [1] is 50 to 500 nM; in test [2] it was 500 to 2500 nM; in test [3], 50 to 500 nM.
Take `Cc1sc2c(c1C)C(c1ccc(N3CC4(CC(CN5CCN(c6ccc([C@H]7c8ccc(O)cc8CC[C@H]7c7ccc(F)cc7)cc6F)CC5)C4)C3)cc1)=N[C@@H](C)c1nnc(C)n1-2` [III-281]: the GI50 lay within 50 to 500 nM in test [1], 500 to 2500 nM in test [2] and 500 to 2500 nM in test [3].
Take `Cc1sc2c(c1C)C(c1ccc(N3CC4(CC(CN5CCN(c6ccc([C@@H]7c8ccc(O)cc8CC[C@@H]7c7ccc(F)cc7)cc6F)CC5)C4)C3)cc1)=N[C@@H](C)c1nnc(C)n1-2` [III-282]: the GI50 is below 50 nM in test [1], 50 to 500 nM in test [2] and below 50 nM in test [3].

One may read the GI50 as the concentration giving 50% growth inhibition.
